According to patent US20240164376A1, “SYNERGISTIC PLANT GROWTH STIMULANT COMPOSITIONS OF POTASSIUM MONO/DI-FORMATE WITH NITROGENOUS COMPOUNDS” (FERTIS INDIA PVT LTD, priority 2021, published 2024):

system: paddy grains; assay: Protein content in the paddy grains; assay type: in vivo

Row | SMILES | % Of Protein [%]
1 | CNC(=O)NC [Dimethyl urea] | 0.0081
2 | O=C(Nc1ccccc1)Nc1ccccc1 [Diphenyl urea] | 0.0089
3 | NC(=O)N(C=O)C=O [N,Ndiformyl urea (NN-DFU), N,Ndiformyl urea] | 0.0112
4 | O=CO.O=C[O-].[K+] [Potassium diformate] | 0.0093
5 | O=C[O-].[K+] [Potassium formate] | 0.0091
6 | NC(N)=O [Urea] | 0.0063
